From ChEMBL document CHEMBL3832066, “DailyMed|setid=891194e8-7083-4438-8d27-c72f2372e40f | ISOSORBIDE MONONITRATE - isosorbide mononitrate tablet, extended release|Mckesson Contract Packaging”
Several values for one entry are separate records, joined by “and”; a condition that tells them apart may be missing. Equal entries are not always repeated.

Columns and labels:
Assay type in all cases: ADME, organism-based
[1] = (§1) Pharmacokinetic parameters for Isosorbide mononitrate after single oral dose administration of 60 mg Isosorbide mononitrate solution or table to subjects.; set-up: dose 60 mg, route oral; settings: human, in vivo, dosed compound id 10, dosed compound name ISOSORBIDE MONONITRATE, regimen Single dose, tissue Plasma
Homo sapiens [2] = experiment: as §1; set-up: dose 60 mg, route oral; settings: in vivo, po, dosed compound id 10, dosed compound name ISOSORBIDE MONONITRATE, regimen Single dose, tissue Plasma
[3] = (§2) Pharmacokinetic parameters for Isosorbide mononitrate after multiple oral dose administrations of 60 and 120 mg Isosorbide mononitrate tablets to subjects; set-up: dose 120 mg, dose 60 mg, route oral; settings: human, in vivo; dose 60 mg, dosed compound id 10, dosed compound name ISOSORBIDE MONONITRATE, regimen Multiple dose, route oral, tissue Plasma
Homo sapiens [4] = experiment: as §2; set-up: dose 120 mg, dose 60 mg, route oral; settings: in vivo, po, dosed compound id 10, dosed compound name ISOSORBIDE MONONITRATE, regimen Multiple dose, tissue Plasma

Q: Which AUC ([1]; po, 60 mg) does the source give for `O=[N+]([O-])O[C@@H]1CO[C@H]2[C@@H]1OC[C@@H]2O` [ISOSORBIDE MONONITRATE] here?
A: 5990 to 7450 ng·h/mL

Q: And the CL/F ([1]; dose 60 mg, route oral)?
A: 151 to 187 mL/min

Q: And the half-life ([1]; dose 60 mg, route oral)?
A: 6.3 to 6.6 h

Q: And the CL/F (Homo sapiens [2]; dose 60 mg)?
A: 120 to 122 mL/min

Q: What about the t1/2 (Homo sapiens [2]; dose 60 mg) of the same compound?
A: 4.8 to 5.1 h

Q: And the AUC (Homo sapiens [2])?
A: 8190 to 8310 ng·h/mL

Q: And the Cmax (Homo sapiens [2])?
A: 424 to 541 ng/mL and 1240 to 1530 ng/mL

Q: And the CL/F [3]?
A: 132 to 151 mL/min

Q: What about the Tmax [3] of the same compound?
A: 2.9 to 4.2 h

Q: What about the half-life [3] of the same compound?
A: 6.2 to 6.3 h

Q: What about the CL/F (Homo sapiens [4]; dose 120 mg) of the same compound?
A: 119 to 140 mL/min

Q: What about the Tmax (Homo sapiens [4]; dose 120 mg) of the same compound?
A: 3.1 to 3.2 h

Q: What about the AUC (Homo sapiens [4]) of the same compound?
A: 6620 to 7560 ng·h/mL and 14200 to 16800 ng·h/mL

Q: What about the Cmax (Homo sapiens [4]) of the same compound?
A: 557 to 572 ng/mL and 1150 to 1180 ng/mL
